Experimental data published in patent US4638070A, “Heterocyclic amino-alcohol derivatives” (Continental Pharma, priority 1980, dated 1987).

Assays:
[1] = test system: guinea-pig ileum (acetylcholine contractions); assay: Antispasmodic activity in vitro, contractions caused by acetylcholine; details: added 15 minutes before spasm-producing agent
Method: (§1) (4) The antispasmodic activity was measured in vitro, on guinea-pig ileum, the contractions of which were caused by histammne (Hist.), acetylcholine (Achol) or barium chloride (BaCl2). The tested products were added to perfusion bath 15 minutes before the spasm-producing agents.
(§2) The dose is given in micograms (μg) per ml of bath causing complete spasm inhibition.

[2] = test system: guinea-pig ileum (histamine contractions); assay: Antispasmodic activity in vitro, contractions caused by histamine; details: added 15 minutes before spasm-producing agent
Method: as §1, §2

femoral artery = assay: Vasodilator activity, femoral artery (technique of perfused paw); type: in vivo; parameters: key: O: no action; +: slight activity; ++: effect equal to half the effect of papaverine; +++: effect equal to that of papaverine; ++++: effect higher than that of papaverine; details: intra-arterial, 30 mg/kg, anaesthetized dog, vs papaverine at same dose
Method: (3) The vasodilator activity was measured at the level of femoral artery on anaesthetized dog (technique of perfused paw). The tested substances were given intra-arterially at the rate of 30 mg/kg. Results are expressed with respect to papaverine tested at the same dose.
++: effect equal to half the effect of papaverine.
+++: effect equal to that of papaverine.
++++: effect higher than that of papaverine.

[3] = Acute toxicity, oral, LD50 (Litchfield and Wilcoxon); details: mouse, in vivo, fasted male mice, confidence limits p=95% in brackets
Method: (1) The acute toxicity was determined on fasted male mice. The tested substances were orally administered and LD50 values (lethal dose for 50% of animals) were calculated according to the method of Litchfield and Wilcoxon (J. Pharmacol. exp. Ther. 96, 94-113, 1949). These LD50 values are given in mg/kg and also, when possible, with their confidence limits for p=95%.

Compound | ANTISPASMODIC ACTIVITY ACHOL (dose causing complete spasm inhibition) [1] | ANTISPASMODIC ACTIVITY HIST. (dose causing complete spasm inhibition) [2] | VASODILATOR ACTIVITY (femoral artery) | LD50 [3]
CC(NCCOCc1ccccc1)C(O)c1ccc2c(c1)CCCS2 (centres unmarked) [No 46] | 3.3 μg per ml | 8.3 μg per ml | +++ | 4000 mg/kg
CC(NCCOc1ccc(C(C)(C)C)cc1)C(O)c1ccc2c(c1)CCCS2 (centres unmarked) [No 107] | 0.8 μg per ml | 0.8 μg per ml | +++ | > 4000 mg/kg
CC(NCCOc1ccc(C(C)(C)C)cc1)C(O)c1ccc2c(c1)CCC2 (centres unmarked) [No 176] | 0.8 μg per ml | 0.17 μg per ml | +++ | > 4000 mg/kg
CC(CCCc1ccccc1)NC(C)C(O)c1ccc2c(c1)CC(C)O2 (centres unmarked) [No 82] | 1.7 μg per ml | 0.3 μg per ml | ++ | 
CCCCCCCCNC(C)C(O)c1ccc2c(c1)CCCC2 (centres unmarked) [No 170] | 0.8 μg per ml | 1.7 μg per ml | +++ | ~2300 mg/kg
CCCCSCCCNC(C)C(O)c1ccc2c(c1)SCCO2 (centres unmarked) [No 124] |  | 1.7 μg per ml | ++ | 
COc1ccc(OCCNC(C)C(O)c2ccc3c(c2)CC(C)S3)cc1 (centres unmarked) [No 66] | 3.3 μg per ml | 1.7 μg per ml | ++ | 
CCCCCCCCNC(CC)C(O)c1ccc2c(c1)CCS2 (centres unmarked) [No 119] |  | 0.3 μg per ml | ++++ | 1800 mg/kg
CC(NCCCN1CCCC1=O)C(O)c1ccc2c(c1)CCCS2 (centres unmarked) [No 77] | 1.7 μg per ml | 0.8 μg per ml | 0 | 235 mg/kg
CCCCCCCCNC(CC)C(O)c1ccc2c(c1)CCCS2 (centres unmarked) [No 128] |  |  |  | > 4000 mg/kg
CCCCOCCOCCCNC(C)C(O)c1ccc2c(c1)CCCS2 (centres unmarked) [No 72] | 1.7 μg per ml | 1.7 μg per ml | ++ | 880 mg/kg
CC1CSc2ccc(C(O)C(C)NCCCc3ccccc3)cc2C1 (centres unmarked) [No 48] | 1.7 μg per ml | 0.8 μg per ml |  | > 4000 mg/kg
COC(=O)c1ccc(OCCNC(C)C(O)c2ccc3c(c2)CCCS3)cc1 (centres unmarked) [No 114] | 3.3 μg per ml | 0.8 μg per ml | +++ | > 2000 mg/kg
CCCCOCCCNC(C)C(O)c1ccc2c(c1)CCCS2 (centres unmarked) [No 50] | 1.7 μg per ml | 1.7 μg per ml | +++ | 900 mg/kg
CC(C)NC(C)C(O)c1ccc2c(c1)CCCCS2 (centres unmarked) [No 38] | 8.3 μg per ml | 3.3 μg per ml | ++ | 240 mg/kg
CC(CCCc1ccccc1)NC(C)C(O)c1ccc2c(c1)CCC2 (centres unmarked) [No 173] | 0.8 μg per ml | 0.8 μg per ml | ++ | 2600 mg/kg
CC(NCCCN1CCNC1=O)C(O)c1ccc2c(c1)CCCS2 (centres unmarked) [No 56] | > 16.7 μg per ml | > 16.7 μg per ml | ++ | 
CC(NCCCN1CCCC1)C(O)c1ccc2c(c1)CCCS2 (centres unmarked) [No 59] | 3.3 μg per ml | 3.3 μg per ml | +++ | 1120 mg/kg
CC(C(O)c1ccc2c(c1)CCCS2)N1CCC(c2ccccc2)CC1 (centres unmarked) [No 91] | 1.7 μg per ml | 0.8 μg per ml | +++ | 
CCCCCCCCNC(C)C(O)c1ccc2c(c1)CC(C)S2 (centres unmarked) [No 18] |  |  |  | 3350 mg/kg
CC(NC1CC1)C(O)c1ccc2c(c1)CCCS2 (centres unmarked) [No 51] | 16.7 μg per ml | 8.3 μg per ml | ++ | 

Compound | ANTISPASMODIC ACTIVITY ACHOL (dose causing complete spasm inhibition) [1] | ANTISPASMODIC ACTIVITY HIST. (dose causing complete spasm inhibition) [2] | VASODILATOR ACTIVITY (femoral artery) | LD50 [3]
COc1ccc(OCCNC(C)C(O)c2ccc3c(c2)CCCS3)cc1 (centres unmarked) [No 53] | 1.7 μg per ml | 3.3 μg per ml | +++ | > 4000 mg/kg
CC(NCCCCc1ccccc1)C(O)c1ccc2c(c1)CCS2 (centres unmarked) [No 7, 1-(2,3-dihydro-5-benzo[b]thienyl)-2-(4-phenylbutylamino)-1-propanol] |  |  |  | 860 mg/kg
COC(=O)CCCCCCCCCCNC(C)C(O)c1ccc2c(c1)CCCS2 (centres unmarked) [No 73] | 1.7 μg per ml | 3.3 μg per ml | +++ | > 4000 mg/kg
CC(NC12CC3CC(CC(C3)C1)C2)C(O)c1ccc2c(c1)CCCS2 (centres unmarked) [No 52] | 1.7 μg per ml | 1.7 μg per ml | +++ | 
CC(NCCCCc1ccccc1)C(O)c1ccc2c(c1)CCCCS2 (centres unmarked) [No 12, 1-(2,3,4,5-tetrahydrobenzo[b]thiepin-7-yl)-2-(4-phenylbutylamino)-1-propanol] |  |  |  | 5200 mg/kg
CC(NCCCCc1ccccc1)C(OC(=O)C(C)(C)C)c1ccc2c(c1)CCS2 (centres unmarked) [No 99] | 1.7 μg per ml | 8.3 μg per ml |  | 
CC(=O)Nc1ccc(OCCNC(C)C(O)c2ccc3c(c2)CCCS3)cc1 (centres unmarked) [No 87] | 16.7 μg per ml | 8.3 μg per ml | +++ | 
Cc1ccc(OCCNC(C)C(O)c2ccc3c(c2)CC(C)S3)cc1 (centres unmarked) [No 79] | 0.8 μg per ml | 1.7 μg per ml |  | 
CC(C)NC(C)C(O)c1ccc2c(c1)CCS2 (centres unmarked) [No 33] | 16.7 μg per ml | 16.7 μg per ml | +++ | 355 mg/kg
CCCCCCCCNC(C)C(O)c1ccc2c(c1)SCCO2 (centres unmarked) [No 121] |  | 0.8 μg per ml | +++ | 
CCCCCCCCNC(C)C(O)c1ccc2c(c1)CC(C)CS2 (centres unmarked) [No 43] | 1.7 μg per ml | 0.8 μg per ml | +++ | 3300 mg/kg
CC(NCCOc1ccc2ccccc2c1)C(O)c1ccc2c(c1)CCCS2 (centres unmarked) [No 88] | 1.7 μg per ml | 1.7 μg per ml | +++ | > 4000 mg/kg
CC(NC1CCCCC1)C(O)c1ccc2c(c1)CCCS2 (centres unmarked) [No 41] | 8.3 μg per ml | 8.3 μg per ml |  | 
CC(NCCCCSc1ccccc1)C(O)c1ccc2c(c1)CCS2 (centres unmarked) [No 31] | 1.7 μg per ml | 0.17 μg per ml |  | > 4000 mg/kg
CC1Cc2cc(C(O)C(C)NCCCN3CCCC3)ccc2O1 (centres unmarked) [No 62] | > 16.7 μg per ml | > 16.7 μg per ml | 0 | 885 mg/kg
CCCCCCCCNC(C)C(OC(=O)CCCCCCC)c1ccc2c(c1)CCCS2 (centres unmarked) [No 136] |  |  |  | > 4000 mg/kg
CC(=O)Nc1ccc(OCCNC(C)C(O)c2ccc3c(c2)CCS3)cc1 (centres unmarked) [No 86] | 16.7 μg per ml | 1.7 μg per ml | +++ | 1420 mg/kg
CCCCSCCCNC(C)C(O)c1ccc2c(c1)CCS2 (centres unmarked) [No 125] |  | 1.7 μg per ml | ++ | 3400 mg/kg
CC(C(O)c1ccc2c(c1)CCC2)N1CCC(c2ccccc2)CC1 (centres unmarked) [No 174] |  | 0.8 μg per ml | +++ | 2150 mg/kg
CC(NCCOc1ccc(NS(C)(=O)=O)cc1)C(O)c1ccc2c(c1)CCS2 (centres unmarked) [No 103] | 16.7 μg per ml | 3.3 μg per ml |  | 
